This test concerns the target human recombinant D-amino acid oxidase (Homo sapiens (Human), UniProt P14920). The test is described as follows: In vitro D-amino acid oxidase (DAAO) assay, 96-well plate. The class given is biochemical. The note with it: human recombinant DAAO; D-serine 5 mM, FAD 1 μM, 20 min, room temperature, Tris buffer pH 8.5; read-out: Inhibition of DAAO IC50. The procedure:
A reliable 96-well plate D-amino acid oxidase (DAAO) assay was developed based on previously published reports (J. Biol. Chem. 277: 27782 (2002)). […] All reactions were carried out for 20 min at room temperature in a 100-μL volume in Tris buffer (50 mM, pH 8.5). Additionally, stock solutions and serial dilutions of potential DAO inhibitors were made in 10:90 DMSO:buffer with a final assay DMSO concentration of 1%.
Sequence of human recombinant D-amino acid oxidase (P14920 whole entry): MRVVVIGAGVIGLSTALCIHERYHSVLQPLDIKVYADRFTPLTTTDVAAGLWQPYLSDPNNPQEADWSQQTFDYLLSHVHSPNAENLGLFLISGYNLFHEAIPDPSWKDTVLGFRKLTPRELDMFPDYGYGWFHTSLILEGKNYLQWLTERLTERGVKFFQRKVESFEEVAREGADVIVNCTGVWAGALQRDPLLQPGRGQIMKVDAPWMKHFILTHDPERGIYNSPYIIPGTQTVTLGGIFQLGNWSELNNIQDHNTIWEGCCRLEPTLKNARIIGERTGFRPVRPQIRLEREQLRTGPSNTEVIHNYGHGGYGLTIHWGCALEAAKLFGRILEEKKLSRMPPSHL
Take `O=c1[nH]c(=O)n(CCn2c3ccccc3c3ccccc32)nc1O` [Compound 10i, 2-(2-(9H-carbazol-9-yl)ethyl)-6-hydroxy-1,2,4-triazine-3,5(2H,4H)-dione]: the IC50 (usually the point on the concentration scale where inhibition reaches its midpoint) is 7000 nM. For `O=C(Cn1nc(O)c(=O)[nH]c1=O)c1ccccc1` [Compound 20, 6-Hydroxy-2-(2-oxo-2-phenylethyl)-1,2,4-triazine-3,5(2H,4H)-dione] the value was 1000 nM; for `O=c1[nH]c(=O)n(CCc2ccccc2F)nc1O` [Compound 5d, 2-(2-Fluorophenethyl)-6-hydroxy-1,2,4-triazine-3,5(2H,4H)-dione], 80 nM.

As to `O=c1[nH]c(=O)n(CCc2ccccn2)nc1O` [Compound 10l, 6-Hydroxy-2-(2-(pyridin-2-yl)ethyl)-1,2,4-triazine-3,5(2H,4H)-dione], the IC50 amounted to 900 nM.

`O=c1[nH]c(=O)n(CCn2cnc3ccccc32)nc1O` [Compound 10f, 2-(2-(1H-benzo[d]imidazol-1-yl)ethyl)-6-hydroxy-1,2,4-triazine-3,5(2H,4H)-dione]: the IC50 worked out at 300 nM. In the case of `O=c1[nH]c(=O)n(Cc2cccc3ccsc23)nc1O` [Compound 10q, 2-(Benzo[b]thiophen-7-ylmethyl)-6-hydroxy-1,2,4-triazine-3,5(2H,4H)-dione], the half-maximal inhibitory concentration (IC50) stood at 2000 nM. In the case of `O=c1[nH]c(=O)n(Cc2ccc3ccccc3c2)nc1O` [Compound 5aa, 6-Hydroxy-2-(naphthalen-2-ylmethyl)-1,2,4-triazine-3,5(2H,4H)-dione] it was 30 nM; in that of `O=c1[nH]c(=O)n(CCc2ccccc2)nc1O` [Compound 5a, 6-Hydroxy-2-phenethyl-1,2,4-triazine-3,5(2H,4H)-dione], 80 nM. For `COc1ccccc1CCn1nc(O)c(=O)[nH]c1=O` [Compound 5v, 6-Hydroxy-2-(2-methoxyphenethyl)-1,2,4-triazine-3,5(2H,4H)-dione] the value was 200 nM; for `O=c1[nH]c(=O)n(CCn2ccc3ccccc32)nc1O` [Compound 10e, 2-(2-(1H-indol-1-yl)ethyl)-6-hydroxy-1,2,4-triazine-3,5(2H,4H)-dione], 100 nM; for `O=c1[nH]c(=O)n(CCCc2ccccc2)nc1O` [Compound 5s, 6-Hydroxy-2-(3-phenylpropyl)-1,2,4-triazine-3,5(2H,4H)-dione], 2000 nM. For `O=c1[nH]c(=O)n(CCc2ccc(O)cc2)nc1O` [Compound 5xp, 6-Hydroxy-2-(4-hydroxyphenethyl)-1,2,4-triazine-3,5(2H,4H)-dione] the value was 100 nM; for `O=c1[nH]c(=O)n(Cc2cccc3c(F)cccc23)nc1O` [Compound 10s, 2-((5-Fluoronaphthalen-1-yl)methyl)-6-hydroxy-1,2,4-triazine-3,5(2H,4H)-dione], 80 nM. Take `O=c1[nH]c(=O)n(CCc2cccc(C(F)(F)F)c2)nc1O` [Compound 5l, 6-Hydroxy-2-(3-(trifluoromethyl)phenethyl)-1,2,4-triazine-3,5(2H,4H)-dione]: the IC50 was determined as 90 nM.

For the molecule `O=c1[nH]c(=O)n(Cc2ccc(F)c3ccccc23)nc1O` [Compound 25b, 2-((4-Fluoronaphthalen-1-yl)methyl)-6-hydroxy-1,2,4-triazine-3,5(2H,4H)-dione], the half-inhibitory concentration (IC50) came to 200 nM. For `Cc1ccc(CCn2nc(O)c(=O)[nH]c2=O)cc1` [Compound 5h, 6-Hydroxy-2-(4-methylphenethyl)-1,2,4-triazine-3,5(2H,4H)-dione] the value was 100 nM; for `O=c1[nH]c(=O)n(CCc2cccc3ccccc23)nc1O` [Compound 5n, 6-Hydroxy-2-(2-(naphthalen-1-yl)ethyl)-1,2,4-triazine-3,5(2H,4H)-dione], 100 nM; for `O=c1[nH]c(=O)n(CCc2ccc(-c3ccccc3F)cc2)nc1O` [Compound 30, 2-(2-(2′-Fluorobiphenyl-4-yl)ethyl)-6-hydroxy-1,2,4-triazine-3,5(2H,4H)-dione], 80 nM. In the case of `O=c1[nH]c(=O)n(CCc2ccc(Cl)cc2)nc1O` [Compound 5e, 2-(4-Chlorophenethyl)-6-hydroxy-1,2,4-triazine-3,5(2H,4H)-dione], the IC50 is 30 nM. In the case of `O=c1[nH]c(=S)n(CCc2ccccc2)nc1O` [Compound 16, 6-Hydroxy-2-phenethyl-3-thioxo-3,4-dihydro-1,2,4-triazin-5(2H)-one] it was 50 nM. With `O=c1[nH]c(=O)n(Cc2ccccc2)nc1O` [Compound 5t, 2-Benzyl-6-hydroxy-1,2,4-triazine-3,5(2H,4H)-dione], the IC50 came out at 9000 nM. For `O=c1[nH]c(=O)n(Cc2ccc(Oc3ccccc3F)cc2)nc1O` [Compound 5ae, 2-(4-(2-Fluorophenoxyl)benzyl)-6-hydroxy-1,2,4-triazine-3,5(2H,4H)-dione] the value was 300 nM; for `O=c1[nH]c(=O)n(CCc2ccc(Cl)c(Cl)c2)nc1O` [Compound 5y, 2-(3,4-Dichlorophenethyl)-6-hydroxy-1,2,4-triazine-3,5(2H,4H)-dione], 30 nM. For `CC(Cc1ccccc1)n1nc(O)c(=O)[nH]c1=O` (stereo not drawn) [Compound 10k, 6-Hydroxy-2-(1-phenylpropan-2-yl)-1,2,4-triazine-3,5(2H,4H)-dione] the value was 300 nM. In the case of `O=c1[nH]c(=O)n(CCn2ncc3ccccc32)nc1O` [Compound 10h, 2-(2-(1H-indazol-1-yl)ethyl)-6-hydroxy-1,2,4-triazine-3,5(2H,4H)-dione] it was 200 nM; in that of `O=c1[nH]c(=O)n(CCc2cccc(F)c2)nc1O` [Compound 5c, 2-(3-Fluorophenethyl)-6-hydroxy-1,2,4-triazine-3,5(2H,4H)-dione], 60 nM; in that of `O=c1[nH]c(=O)n(CCc2ccc(F)c(Cl)c2)nc1O` [Compound 5z, 2-(3-Chloro-4-fluorophenethyl)-6-hydroxy-1,2,4-triazine-3,5(2H,4H)-dione], 60 nM. For the molecule `O=c1[nH]c(=O)n(CCc2cccc(Oc3ccccc3)c2)nc1O` [Compound 5ad, 6-Hydroxy-2-(3-phenoxyphenethyl)-1,2,4-triazine-3,5(2H,4H)-dione], the IC50 came out at 300 nM. For the molecule `O=c1[nH]c(=O)n(Cc2ccc3cc(F)ccc3c2)nc1O` [Compound 5ab, 2-((6-Fluoronaphthalen-2-yl)methyl)-6-hydroxy-1,2,4-triazine-3,5(2H,4H)-dione], the half-maximal inhibitory concentration (IC50) is 100 nM. For `O=c1[nH]c(=O)n(Cc2cccc3[nH]ccc23)nc1O` [Compound 10o, 2-((1H-indol-4-yl)methyl)-6-hydroxy-1,2,4-triazine-3,5(2H,4H)-dione] the value was 200 nM; for `O=c1[nH]c(=O)n(CC(O)c2ccccc2)nc1O` (stereo not drawn) [Compound 21, 6-Hydroxy-2-(2-hydroxy-2-phenylethyl)-1,2,4-triazine-3,5(2H,4H)-dione], 1000 nM; for `O=c1[nH]c(=O)n(CCc2ccc(C(F)(F)F)cc2)nc1O` [Compound 5k, 6-Hydroxy-2-(4-(trifluoromethyl)phenethyl)-1,2,4-triazine-3,5(2H,4H)-dione], 80 nM. Turning to `O=c1[nH]c(=O)n(CCc2ccccc2Cl)nc1O` [Compound 5g, 2-(2-Chlorophenethyl)-6-hydroxy-1,2,4-triazine-3,5(2H,4H)-dione], the 50% inhibitory concentration (IC50) is 100 nM.

Turning to `Cc1cccc(CCn2nc(O)c(=O)[nH]c2=O)c1` [Compound 5i, 6-Hydroxy-2-(3-methylphenethyl)-1,2,4-triazine-3,5(2H,4H)-dione], the IC50 is 60 nM. For `O=c1[nH]c(=O)n(CCN2CCN(c3ccccc3F)CC2)nc1O` [Compound 12c, 2-(2-(4-(2-Fluorophenyl)piperazin-1-yl)ethyl)-6-hydroxy-1,2,4-triazine-3,5(2H,4H)-dione] the value was 3000 nM. In the case of `O=c1[nH]c(=O)n(CCn2ccc3cccnc32)nc1O` [Compound 10g, 2-(2-(1H-pyrrolo[2,3-b]pyridin-1-yl)ethyl)-6-hydroxy-1,2,4-triazine-3,5(2H,4H)-dione] it was 300 nM; in that of `Cn1nc(O)c(=O)[nH]c1=O` [Compound 5p, 6-Hydroxy-2-methyl-1,2,4-triazine-3,5(2H,4H)-dione], 3000 nM. For `O=c1[nH]c(=O)n(CCc2ccccc2O)nc1O` [Compound 5vp, 6-Hydroxy-2-(2-hydroxyphenethyl)-1,2,4-triazine-3,5(2H,4H)-dione], the IC50 amounted to 60 nM.

On to `O=c1[nH]c(=O)n(CCc2ccc(F)c(F)c2)nc1O` [Compound 10b, 2-(3,4-Difluorophenethyl)-6-hydroxy-1,2,4-triazine-3,5(2H,4H)-dione], for which the half-inhibitory concentration (IC50) was 40 nM. For `O=c1[nH]c(=O)n(CCc2cccc(Cl)c2)nc1O` [Compound 5f, 2-(3-Chlorophenethyl)-6-hydroxy-1,2,4-triazine-3,5(2H,4H)-dione] the value was 60 nM; for `O=c1[nH]c(=O)n(Cc2cccc3cnccc23)nc1O` [Compound 10p, 6-Hydroxy-2-(isoquinolin-5-ylmethyl)-1,2,4-triazine-3,5(2H,4H)-dione], 300 nM.

`O=c1[nH]c(=O)n(Cc2ccc(-c3ccccc3)cc2)nc1O` [Compound 5af, 2-(Biphenyl-4-ylmethyl)-6-hydroxy-1,2,4-triazine-3,5(2H,4H)-dione]: the IC50 worked out at 300 nM. For `O=c1[nH]c(=O)n(Cc2cccc3ccccc23)nc1O` [Compound 5u, 6-Hydroxy-2-(naphthalen-1-ylmethyl)-1,2,4-triazine-3,5(2H,4H)-dione] the value was 50 nM; for `Cc1ccccc1CCn1nc(O)c(=O)[nH]c1=O` [Compound 5j, 6-Hydroxy-2-(2-methylphenethyl)-1,2,4-triazine-3,5(2H,4H)-dione], 60 nM. In the case of `O=c1[nH]c(=O)n(C[C@@H]2C[C@H]2c2ccccc2)nc1O` [Compound 10n, 6-Hydroxy-2-(((1R,2R)-2-phenylcyclopropyl)methyl)-1,2,4-triazine-3,5(2H,4H)-dione] it was 400 nM.

Source of the values: patent publication US9505753B2, “Inhibitors of D-amino acid oxidase” (THE JOHNS HOPKINS UNIVERSITY, priority 2012, dated 2016).
